We go through 32 compounds from patent US20130096119A1, “Isoquinolin-3-Ylurea Derivatives” (priority 2010, published 2013).

Values after ≈ are worked out from the molar mass of the structure shown.

This assay has as its system S. pneumoniae ATCC 49619. In words: Minimal inhibitory concentration (MIC) by microdilution method (CLSI M7-A7). Particulars: Streptococcus pneumoniae, ATCC49619, cation-adjusted Mueller-Hinton Broth supplemented with 3% (v/v) lysed horse blood. It counts as cell-based, Streptococcus pneumoniae. In a few lines:
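For S. pneumoniae, cation-adjusted Mueller-Hinton broth carried 3% (v/v) lysed horse blood; MICs (mg/l) were read by CLSI M7-A7 microdilution.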

In turn, `CCNC(=O)Nc1cc2cccc(Cn3ccnc3C(=O)O)c2cn1` [Example 294, 1-[3-(3-ethyl-ureido)-isoquinolin-8-ylmethyl]-1H-imidazole-2-carboxylic acid] had a minimal inhibitory concentration (MIC) of 4 µg/mL (≈ 11.8 µM).

The compound `CCNC(=O)Nc1cc2c(F)c(NCc3ccccc3)cc(-c3cnc(OC)nc3)c2cn1` [Example 110, 1-[6-benzylamino-5-fluoro-8-(2-methoxy-pyrimidin-5-yl)-isoquinolin-3-yl]-3-ethyl-urea] displayed an MIC of 1 µg/mL (≈ 2.24 µM).

In the case of `CCNC(=O)Nc1cc2cccc(Nc3ccc(C)c(C(=O)OC)c3)c2cn1` [Example 264, 5-[3-(3-ethyl-ureido)-isoquinolin-8-ylamino]-2-methyl-benzoic acid methyl ester], the minimal inhibitory concentration (MIC) worked out at 8 µg/mL (≈ 21.1 µM). Under `CCNC(=O)Nc1cc2cc(-c3ccc(CO)nc3)cc(C)c2cn1` [Example 101, 1-ethyl-3-[6-(6-hydroxymethyl-pyridin-3-yl)-8-methyl-isoquinolin-3-yl]-urea] stands 1 µg/mL (≈ 2.97 µM); under `CCNC(=O)Nc1cc2c(-c3cccc4[nH]ccc34)ccc(C)c2cn1` [Example 69, 1-ethyl-3-[5-(1H-indol-4-yl)-8-methyl-isoquinolin-3-yl]-urea], 16 µg/mL (≈ 46.5 µM); under `CCNC(=O)Nc1cc2c(-c3ccc(C(=O)NC)cc3)ccc(C)c2cn1` [Example 6, 4-[3-(3-ethyl-ureido)-8-methyl-isoquinolin-5-yl]-N-methyl-benzamide], 0.5 µg/mL (≈ 1.38 µM). Under `CCNC(=O)Nc1cc2cccc(Nc3cccc(C)n3)c2cn1.Cl` [Example 155, 1-ethyl-3-[8-(6-methyl-pyridin-2-ylamino)-isoquinolin-3-yl]-urea hydrochloride] stands 2 µg/mL; under `CCNC(=O)Nc1cc2cccc(Nc3cccc(NC(C)=O)c3)c2cn1` [Example 172, N-{3-[3-(3-ethyl-ureido)-isoquinolin-8-ylamino]-phenyl}-acetamide], 2 µg/mL (≈ 5.5 µM). Then `CCNC(=O)Nc1cc2cccc(Nc3ccc(CC(=O)NCc4ccccc4)cc3)c2cn1.Cl` [Example 208, N-benzyl-2-{4-[3-(3-ethyl-ureido)-isoquinolin-8-ylamino]-phenyl}-acetamide hydrochloride], with 8 µg/mL; and `CCNC(=O)Nc1cc2cc(NC(=O)c3cncs3)cc(C)c2cn1` [Example 62, thiazole-5-carboxylic acid [3-(3-ethyl-ureido)-8-methyl-isoquinolin-6-yl]-amide], with 0.25 µg/mL (≈ 0.703 µM). `CCNC(=O)Nc1cc2c(-c3ccc(NC(=O)OC)cc3)ccc(C)c2cn1` [Example 65, {4-[3-(3-ethyl-ureido)-8-methyl-isoquinolin-5-yl]-phenyl}-carbamic acid methyl ester] had a minimal inhibitory concentration (MIC) of 2 µg/mL (≈ 5.28 µM).

Compound `CCNC(=O)Nc1cc2c(-c3ccncc3)ccc(Nc3cccc(C)n3)c2cn1` [Example 219, 1-ethyl-3-[8-(6-methyl-pyridin-2-ylamino)-5-pyridin-4-yl-isoquinolin-3-yl]-urea] came in with an MIC of 0.25 µg/mL (≈ 0.627 µM). Under `CCNC(=O)Nc1cc2cc(NCc3ccnc(N4CCOCC4)c3)cc(C)c2cn1` [Example 185, 1-ethyl-3-{8-methyl-6-[(2-morpholin-4-yl-pyridin-4-ylmethyl)-amino]-isoquinolin-3-yl}-urea] stands 4 µg/mL (≈ 9.51 µM). Then `CCNC(=O)Nc1cc2cccc(COc3cccc(N)c3)c2cn1.Cl` [Example 260, 1-[8-(3-amino-phenoxymethyl)-isoquinolin-3-yl]-3-ethyl-urea hydrochloride], with 8 µg/mL; and `CCNC(=O)Nc1cc2c(Br)ccc(OC)c2cn1` [Example 73, 1-(5-bromo-8-methoxy-isoquinolin-3-yl)-3-ethyl-urea], with 8 µg/mL (≈ 24.7 µM).

With `CCNC(=O)Nc1cc2cccc(COc3ccc(C)cn3)c2cn1.Cl` [Example 257, 1-ethyl-3-[8-(5-methyl-pyridin-2-yloxymethyl)-isoquinolin-3-yl]-urea hydrochloride], the MIC came out at 8 µg/mL. Then `CCNC(=O)Nc1cc2cc(-c3ccccc3C(=O)N(C)C)cc(C)c2cn1` [Example 23, 2-[3-(3-ethyl-ureido)-8-methyl-isoquinolin-6-yl]-N,N-dimethyl-benzamide], with 8 µg/mL (≈ 21.3 µM); and `CCNC(=O)Nc1cc2c(-c3ccnc(Cl)c3)ccc(C)c2cn1` [Example 27, 1-[5-(2-chloro-pyridin-4-yl)-8-methyl-isoquinolin-3-yl]-3-ethyl-urea], with 2 µg/mL (≈ 5.87 µM). Under `CCNC(=O)Nc1cc2cc(-c3ccc(F)nc3)cc(C)c2cn1` [Example 99, 1-ethyl-3-[6-(6-fluoro-pyridin-3-yl)-8-methyl-isoquinolin-3-yl]-urea] stands 2 µg/mL (≈ 6.17 µM).

In turn, `C=Cc1cc(C)c2cnc(NC(=O)NCC)cc2c1` [Example 216, 1-ethyl-3-(8-methyl-6-vinyl-isoquinolin-3-yl)-urea] yielded an MIC of 8 µg/mL (≈ 31.3 µM). Turning to `CCNC(=O)Nc1cc2cccc(Nc3ccccn3)c2cn1` [Example 146, 1-ethyl-3-[8-(pyridin-2-ylamino)-isoquinolin-3-yl]-urea], the MIC turned out to be 4 µg/mL (≈ 13 µM).

`CCNC(=O)Nc1cc2cc(NCc3cccc(C(=O)OC)c3)cc(C)c2cn1` [Example 126, 3-{[3-(3-ethyl-ureido)-8-methyl-isoquinolin-6-ylamino]-methyl}-benzoic acid methyl ester]: the minimum inhibitory concentration (MIC) came to 8 µg/mL (≈ 20.4 µM). Under `CCNC(=O)Nc1cc2cc(NCc3ccc(NC(C)=O)cc3)cc(C)c2cn1` [Example 137, N-(4-{[3-(3-ethyl-ureido)-8-methyl-isoquinolin-6-ylamino]-methyl}-phenyl)-acetamide] stands 8 µg/mL (≈ 20.4 µM). Under `CCNC(=O)Nc1cc2c(-c3cn(C)cn3)ccc(C)c2cn1.Cl` [Example 283, 1-ethyl-3-[8-methyl-5-(1-methyl-1H-imidazol-4-yl)-isoquinolin-3-yl]-urea hydrochloride] stands 8 µg/mL. Compound `CCNC(=O)Nc1cc2cc(NC(=O)c3cccc(C(=O)OC)c3)cc(C)c2cn1` [Example 194, N-[3-(3-ethyl-ureido)-8-methyl-isoquinolin-6-yl]isophthalamic acid methyl ester] showed an MIC of 4 µg/mL (≈ 9.84 µM). This MIC lies about 2-fold lower than the previous one.

`CCNC(=O)Nc1cc2cccc(Nc3ccc(OC)cn3)c2cn1` [Example 181, 1-ethyl-3-[8-(5-methoxy-pyridin-2-ylamino)-isoquinolin-3-yl]-urea] registered an MIC of 8 µg/mL (≈ 23.7 µM).

`CCNC(=O)Nc1cc2c(F)c(-c3cccc(NC(C)=O)c3)cc(C)c2cn1` [Example 142, N-{3-[3-(3-ethyl-ureido)-5-fluoro-8-methyl-isoquinolin-6-yl]-phenyl}-acetamide] had an MIC of 0.25 µg/mL (≈ 0.657 µM). This MIC lies about 32-fold lower than the previous one. Then `CCNC(=O)Nc1cc2cccc(Nc3cccnc3)c2cn1` [Example 145, 1-ethyl-3-[8-(pyridin-3-ylamino)-isoquinolin-3-yl]-urea], with 1 µg/mL (≈ 3.25 µM).

In turn, `CCNC(=O)Nc1cc2cc(-c3cccc(C#N)c3)cc(C)c2cn1` [Example 107, 1-[6-(3-cyano-phenyl)-8-methyl-isoquinolin-3-yl]-3-ethyl-urea] had a minimal inhibitory concentration (MIC) of 1 µg/mL (≈ 3.03 µM).

Compound `Cc1ccc(-c2ccncc2)c2cc(NC(=O)NC3CC3)ncc12` [Example 139, 1-cyclopropyl-3-(8-methyl-5-pyridin-4-yl-isoquinolin-3-yl)-urea] yielded an MIC of 4 µg/mL (≈ 12.6 µM). This MIC is about 4-fold higher than that of the compound before.

Consider `CCNC(=O)Nc1cc2cccc(COc3ccncc3)c2cn1.Cl` [Example 262, 1-ethyl-3-[8-(pyridin-4-yloxymethyl)-isoquinolin-3-yl]-urea hydrochloride], for which it took 8 µg/mL to inhibit growth (MIC).

In the case of `CCNC(=O)Nc1cc2cc(-c3cccc(CN)c3)cc(C)c2cn1` [Example 26, 1-[6-(3-(aminomethyl)-phenyl)-8-methyl-isoquinolin-3-yl]-3-ethyl-urea], the minimal inhibitory concentration (MIC) is 0.5 µg/mL (≈ 1.5 µM).

As usually defined, the MIC is the smallest concentration in the dilution series that meets the test's criterion for growth inhibition. A higher MIC goes with a less susceptible organism.
